# Values of other authors as cited in article PMC3263412 (International Journal of Nanomedicine, 2012).
smiles,measurement,value
"CCCCCCCCCCCCCCCC[N+](C)(C)C [CTAB, Cetyltrimethyl ammonium bromide]",cytotoxicity,marked cytotoxicity
